Our source for the MIC values is ChEMBL document CHEMBL5625189, “Discovery of new diaryl ether inhibitors against Mycobacterium tuberculosis targeting the minor portal of InhA” (Eur J Med Chem, 2023).

Format in all cases: functional
Holding throughout (conditions): 432 h, time 18 day

Assay [1] relates to Mycobacterium tuberculosis. Nature of the assay: Antimycobacterial activity against Mycobacterium tuberculosis H37Ra harbouring pVV16 plasmid overexpressing hadABC assessed as inhibition of bacterial growth incubated for 18 days by drop dilution method.
The test system of assay [2] is Mycobacterium tuberculosis. The experiment in a line: Antimycobacterial activity against Mycobacterium tuberculosis H37Ra harbouring pVV2 plasmid overexpressing katG assessed as inhibition of bacterial growth incubated for 18 days by drop dilution method.
The subject of assay [3] is Mycobacterium tuberculosis. Nature of the assay: Antimycobacterial activity against Mycobacterium tuberculosis H37Ra harbouring pMV261 plasmid assessed as inhibition of bacterial growth incubated for 18 days by drop dilution method.
Assay [4] has as its system Mycobacterium tuberculosis. Nature of the assay: Antimycobacterial activity against Mycobacterium tuberculosis H37Ra harbouring pVV2 plasmid assessed as inhibition of bacterial growth incubated for 18 days by drop dilution method.
In assay [5] the test system is Mycobacterium tuberculosis. The experiment in a line: Antimycobacterial activity against Mycobacterium tuberculosis H37Ra harbouring pMV261 plasmid overexpressing InhA assessed as inhibition of bacterial growth incubated for 18 days by drop dilution method.

In brackets after ≈: the same amount, converted by molar mass.

Usually MIC stands for the smallest concentration in the dilution series that meets the test's criterion for growth inhibition.

Take `CCN(CC)c1ccc2c(OCc3cn(Cc4ccc(Oc5ccccc5)c(O)c4)nn3)cc(=O)oc2c1`: the MIC in assay [1] was 6.25 µM (≈ 3.2 µg/mL); in assay [2], 6.25 µM (≈ 3.2 µg/mL); in assay [3], 6.25 µM (≈ 3.2 µg/mL); in assay [4] it was 6.25 µM (≈ 3.2 µg/mL); in assay [5], > 25 µM.
In the case of `CCCCCCc1ccc(Oc2ccc(Cn3cc(CNc4ccc([N+](=O)[O-])c5nonc45)nn3)cc2)c(O)c1`, the minimum inhibitory concentration (MIC) in assay [1], in assay [2], in assay [3], in assay [4] and in assay [5] was 2.5 µM (≈ 1.36 µg/mL) each time.
For the molecule `Cc1cc(=O)oc2cc(OCc3cn(Cc4ccc(Oc5ccccc5)c(O)c4)nn3)ccc12`, the MIC in assay [1] was 1.25 µM (≈ 0.569 µg/mL); in assay [2] it was 1.25 µM (≈ 0.569 µg/mL); in assay [3] it was 1.25 µM (≈ 0.569 µg/mL); in assay [4] it was 1.25 µM (≈ 0.569 µg/mL); in assay [5], 12.5 µM (≈ 5.69 µg/mL).
